From US20160340322A1 (NISSAN CHEMICAL INDUSTRIES, LTD., priority 2013, published 2016)

Molecular target: T1, Human T-type calcium channel (Cav 3.2) (Homo sapiens, UniProt O95180)
T1 construct: Edward Perez-Reyes, University of Virginia, USA; host or cells: HEK293
Test: Calcium Influx Inhibition Assay
Type: cell-based
Conditions: human T-type calcium channel (Cav 3.2) expressing HEK293 cells; FLIPR Calcium 4 fluorescence; 30 min compound incubation; read-out: T-type calcium channel inhibition concentration IC50
Method: 1. Calcium Influx Inhibition Assay Human T-type calcium channel (Cav 3.2) expressing HEK293 cells were introduced from Prof. Edward Perez-Reyes, University of Virginia, USA. The calcium-sensitive fluorescent dye used was FLIPR Calcium 4 Assay Kit (Molecular Devices). To a black 96-well plate with a clear bottom coated with type I collagen, the human T-type calcium channel (Cav 3.2) expressing HEK293 cells were seeded and cultured overnight, and the culture medium was removed. A solution of the calcium-sensitive fluorescent dye was added, and the resultant plate was incubated at 37° C. in an atmosphere of 5% carbon dioxide for 30 minutes. To the plate, a diluted solution of a compound was added, and subjected to further incubation at 37° C. in an atmosphere of 5% carbon dioxide for 30 minutes. While fluorescence was continuously analyzed from the bottom with a FlexStation 3 (Molecular Devices), a calcium solution was added. […] Based on the rise value in the fluorescence from the base line, the inhibition percentage was calculated. The logarithms of compound concentrations were plotted with respect to the inhibition activities to obtain an IC50 value.

T1 sequence (O95180 whole entry): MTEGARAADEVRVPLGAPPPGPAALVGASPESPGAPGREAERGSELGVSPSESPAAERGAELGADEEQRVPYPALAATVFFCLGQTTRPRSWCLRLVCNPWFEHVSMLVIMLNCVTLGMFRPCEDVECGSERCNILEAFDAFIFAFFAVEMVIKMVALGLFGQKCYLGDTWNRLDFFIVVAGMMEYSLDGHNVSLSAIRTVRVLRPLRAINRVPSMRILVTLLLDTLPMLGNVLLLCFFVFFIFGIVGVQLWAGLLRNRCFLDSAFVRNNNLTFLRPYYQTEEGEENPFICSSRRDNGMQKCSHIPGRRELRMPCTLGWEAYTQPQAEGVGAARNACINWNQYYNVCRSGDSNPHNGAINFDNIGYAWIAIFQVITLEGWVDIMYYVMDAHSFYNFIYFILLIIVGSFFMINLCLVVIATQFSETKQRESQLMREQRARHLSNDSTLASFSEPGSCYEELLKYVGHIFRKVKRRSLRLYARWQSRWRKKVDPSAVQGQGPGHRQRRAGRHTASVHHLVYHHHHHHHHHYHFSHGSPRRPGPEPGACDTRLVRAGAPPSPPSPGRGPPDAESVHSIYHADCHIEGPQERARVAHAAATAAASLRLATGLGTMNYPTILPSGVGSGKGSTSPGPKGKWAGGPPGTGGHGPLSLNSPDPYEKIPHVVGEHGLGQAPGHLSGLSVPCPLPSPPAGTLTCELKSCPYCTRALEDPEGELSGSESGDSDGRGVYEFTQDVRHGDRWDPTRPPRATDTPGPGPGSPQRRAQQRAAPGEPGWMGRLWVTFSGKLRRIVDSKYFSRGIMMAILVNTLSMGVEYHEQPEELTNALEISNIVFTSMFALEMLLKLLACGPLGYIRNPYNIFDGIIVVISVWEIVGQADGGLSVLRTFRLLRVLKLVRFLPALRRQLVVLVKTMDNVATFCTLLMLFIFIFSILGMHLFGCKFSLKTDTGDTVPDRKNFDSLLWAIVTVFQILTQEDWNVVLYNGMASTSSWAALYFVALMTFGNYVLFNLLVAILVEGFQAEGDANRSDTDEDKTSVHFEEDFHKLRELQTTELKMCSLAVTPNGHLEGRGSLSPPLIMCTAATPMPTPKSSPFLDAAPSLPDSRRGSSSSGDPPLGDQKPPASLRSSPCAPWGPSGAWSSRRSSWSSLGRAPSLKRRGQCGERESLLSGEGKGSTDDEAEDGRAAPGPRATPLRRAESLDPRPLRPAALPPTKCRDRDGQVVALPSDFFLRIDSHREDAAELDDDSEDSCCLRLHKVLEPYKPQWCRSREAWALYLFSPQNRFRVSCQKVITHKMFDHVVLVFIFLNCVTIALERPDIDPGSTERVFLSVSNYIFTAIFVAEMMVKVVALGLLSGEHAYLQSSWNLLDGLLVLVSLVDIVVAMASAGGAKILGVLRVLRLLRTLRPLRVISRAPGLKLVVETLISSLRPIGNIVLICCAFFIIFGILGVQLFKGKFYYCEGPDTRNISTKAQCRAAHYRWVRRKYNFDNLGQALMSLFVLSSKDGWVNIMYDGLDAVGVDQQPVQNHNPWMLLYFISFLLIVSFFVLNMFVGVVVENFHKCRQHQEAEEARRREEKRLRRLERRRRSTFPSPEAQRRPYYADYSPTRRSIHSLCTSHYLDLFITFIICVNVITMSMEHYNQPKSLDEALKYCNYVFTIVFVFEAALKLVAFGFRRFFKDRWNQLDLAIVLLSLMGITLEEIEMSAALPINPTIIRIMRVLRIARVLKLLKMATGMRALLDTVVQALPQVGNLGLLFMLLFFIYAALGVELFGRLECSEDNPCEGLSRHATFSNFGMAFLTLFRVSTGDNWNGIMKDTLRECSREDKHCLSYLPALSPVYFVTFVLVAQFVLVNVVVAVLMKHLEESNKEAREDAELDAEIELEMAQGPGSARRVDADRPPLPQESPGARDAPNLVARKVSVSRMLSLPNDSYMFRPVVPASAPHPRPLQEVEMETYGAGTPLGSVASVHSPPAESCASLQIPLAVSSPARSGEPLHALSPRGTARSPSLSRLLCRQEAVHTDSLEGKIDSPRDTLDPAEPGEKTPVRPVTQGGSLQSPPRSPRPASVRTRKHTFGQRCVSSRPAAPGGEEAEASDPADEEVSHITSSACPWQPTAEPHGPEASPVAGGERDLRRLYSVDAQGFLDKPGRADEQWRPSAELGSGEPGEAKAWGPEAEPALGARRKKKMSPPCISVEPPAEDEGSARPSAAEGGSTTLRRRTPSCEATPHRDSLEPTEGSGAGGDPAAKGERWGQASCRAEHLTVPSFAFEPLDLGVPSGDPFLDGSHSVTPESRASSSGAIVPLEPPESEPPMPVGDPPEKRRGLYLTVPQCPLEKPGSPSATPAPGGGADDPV

IC50 [nM] | Structure (SMILES)
120 | Cc1cccc(C2=CCN(c3cnn(Cc4ccc(C(F)(F)F)s4)c(=O)n3)C[C@@H]2O)n1 [Synthesis Example 31, (R)-5-[5′-Hydroxy-6-methyl-5′,6′-dihydro-(2,4′-bipyridin)-1′(2′H)-yl]-2-{[5-(trifluoromethyl)thiophen-2-yl]methyl}-1,2,4-triazin-3 (2H)-one]
6.4 | CC(C)(C)c1ccc(Cn2ncc(N3CC=C(c4ccc(F)cc4)[C@@H](O)C3)nc2=O)s1 [Synthesis Example 48, (R)-2-{[5-(Tert-butyl)thiophen-2-yl]methyl}-5-[4-(4-fluorophenyl)-5-hydroxy-5,6-dihydropyridin-(2H)-yl]-1,2,4-triazin-3(2H)-one]
38 | CCCCCCOc1ccc(Cn2ncc(N3CCN(c4ccc(F)cc4)CC3)nc2=O)cc1 [Synthesis Example 2, 5-[4-(4-Fluorophenyl)piperazin-1-yl]-2-[4-(hexyloxy)benzyl]-1,2,4-triazin-3(2H)-one]
110 | O=c1nc(N2CC=C(c3ccc(F)cc3)[C@@H](O)C2)cnn1Cn1ccc(C(F)(F)F)n1 [Synthesis Example 46, (R)-5-[4-(4-Fluorophenyl)-5-hydroxy-5,6-dihydropyridin-(2H)-yl]-2-{[3-(trifluoromethyl)-1H-pyrazol-1-yl]methyl}-1,2,4-triazin-3(2H)-one]
27 | O=c1nc(N2CCN(c3ccc(F)cc3)CC2)cnn1Cc1ccc(C(F)(F)F)s1 [Synthesis Example 5, 5-[4-(4-Fluorophenyl)piperazin-1-yl]-2-{[5-(trifluoromethyl)thiophen-2-yl]methyl}-1,2,4-triazin-3(2H)-one]
490 | O=c1nc(N2CCN(c3ccc(F)cc3)CC2)cnn1Cc1cnc(C(F)(F)F)s1 [Synthesis Example 10, 5-[4-(4-Fluorophenyl)piperazin-1-yl]-2-{[2-(trifluoromethyl)thiazol-5-yl]methyl}-1,2,4-triazin-3(2H)-one]
3.1 | O=c1nc(N2CC=C(c3ccc(F)c(Cl)c3)[C@@H](O)C2)cnn1Cc1ccc(C(F)(F)F)s1 [Synthesis Example 54, (R)-5-[4-(3-Chloro-4-fluorophenyl)-5-hydroxy-5,6-dihydropyridin-1(2H)-yl]-2-{[5-(trifluoromethyl)thiophen-2-yl]methyl}-1,2,4-triazin-3(2H)-one]
130 | O=c1nc(N2CC=C(c3ccc(F)cc3)[C@@H](O)C2)cnn1Cc1ccc(C(F)(F)F)o1 [Synthesis Example 27, (R)-5-[4-(4-Fluorophenyl)-5-hydroxy-5,6-dihydropyridin-1(2H)-yl]-2-{[5-(trifluoromethyl)furan-2-yl]methyl}-1,2,4-triazin-3(2H)-one]
170 | O=c1nc(N2CCc3cc(C(F)(F)F)ccc3C2)cnn1Cc1ccc(C(F)(F)F)s1 [Synthesis Example 53, 5-[6-(trifluoromethyl)-3,4-dihydroisoquinolin-2(1H)-yl]-2-{[5-(trifluoromethyl)thiophen-2-yl]methyl}-1,2,4-triazin-3(2H)-one]
180 | CCOc1ccc2c(c1)C(O)CN(c1cnn(Cc3ccc(C(F)(F)F)s3)c(=O)n1)C2 (centres unmarked) [Synthesis Example 16]
5.6 | O=c1nc(N2CC=C(c3ccc(F)cc3)[C@@H](O)C2)cnn1Cc1ccc(OS(=O)(=O)C(F)(F)F)nc1 [Synthesis Example 51, (R)-5-({5-[4-(4-Fluorophenyl)-5-hydroxy-5,6-dihydropyridin-1(2H)-yl]-3-oxo-1,2,4-triazin-2(3H)-yl}methyl)pyridin-2-yl trifluoromethanesulfonate]
670 | Cc1cc(N2CCN(c3cnn(Cc4cnc(C(F)(F)F)s4)c(=O)n3)CC2)cs1 [Synthesis Example 23, 5-[4-(5-Methylthiophen-3-yl)piperazin-1-yl]-2-{[2-(trifluoromethyl)thiazol-5-yl]methyl}-1,2,4-triazin-3(2H)-one]
120 | O=c1nc(N2CC=C(c3ccc(F)cc3)C(F)C2)cnn1Cc1cnc(C(F)(F)F)s1 (centres unmarked) [Synthesis Example 22, 5-[5-Fluoro-4-(4-fluorophenyl)-5,6-dihydropyridin-(2H)-yl]-2-{[2-(trifluoromethyl)thiazol-5-yl]methyl}-1,2,4-triazin-3(2H)-one]
94 | O=c1nc(N2CC=C(c3ccc(F)cc3)[C@@H](O)C2)cnn1Cc1ccc(OC(F)F)nc1 [Synthesis Example 28, (R)-2-{[6-(Difluoromethoxy)pyridin-3-yl]methyl}-5-[4-(4-fluorophenyl)-5-hydroxy-5,6-dihydropyridin-1(2H)-yl]-1,2,4-triazin-3(2H)-one]
30 | O=c1nc(N2CC=C(c3ccc(F)cc3)[C@@H](O)C2)cnn1Cc1cnc(C(F)(F)F)s1 [Synthesis Example 11, (R)-5-[4-(4-Fluorophenyl)-5-hydroxy-5,6-dihydropyridin-1(2H)-yl]-2-{[2-(trifluoromethyl)thiazol-5-yl]methyl}-1,2,4-triazin-3(2H)-one]
1800 | O=c1nc(N2Cc3ccc(O)cc3C(O)C2)cnn1Cc1ccc(C(F)(F)F)s1 (centres unmarked) [Synthesis Example 25, 5-[4,6-Dihydroxy-3,4-dihydroisoquinolin-2(1H)-yl]-2-{[5-(trifluoromethyl)thiophen-2-yl]methyl}-1,2,4-triazin-3(2H)-one]
570 | O=c1nc(N2CCc3cc(C(F)(F)F)ccc3C2)cnn1Cc1cnc(C(F)(F)F)s1 [Synthesis Example 44, 5-[6-(trifluoromethyl)-3,4-dihydroisoquinolin-2-(1H)-yl]-2-{[2-(trifluoromethyl)thiazol-5-yl]methyl}-1,2,4-triazin-3(2H)-one]
230 | O=c1nc(N2CCN(c3ccc(F)c(Cl)c3)CC2)cnn1Cc1cnc(C(F)(F)F)s1 [Synthesis Example 21, 5-[4-(3-Chloro-4-fluorophenyl)piperazin-1-yl]-2-{[2-(trifluoromethyl)thiazol-5-yl]methyl}-1,2,4-triazin-3(2H)-one]
54 | O=c1nc(N2CC=C(c3ccc(F)c(Cl)c3)[C@@H](O)C2)cnn1Cc1cnc(C(F)(F)F)s1 [Synthesis Example 43, (R)-5-[4-(3-Chloro-4-fluorophenyl)-5-hydroxy-5,6-dihydropyridin-1(2H)-yl]-2-{[2-(trifluoromethyl)thiazol-5-yl]methyl}-1,2,4-triazin-3(2H)-one]
25 | O=c1nc(N2CC=C(c3ccc(F)cc3)[C@@H](O)C2)cnn1Cn1ccc(C(F)(F)C(F)(F)F)n1 [Synthesis Example 49, (R)-5-[4-(4-Fluorophenyl)-5-hydroxy-5,6-dihydropyridin-1(2H)-yl]-2-{[3-(perfluoroethyl)-1 H-pyrazol-1-yl]methyl}-1,2,4-triazin-3(2H)-one]
210 | Cc1ccc(N2CCN(c3cnn(Cc4ccc(C(F)(F)F)s4)c(=O)n3)CC2)nc1 [Synthesis Example 8, 5-[4-(5-methylpyridin-2-yl)piperazin-1-yl]-2-{[5-(trifluoromethyl)thiophene-2-yl]methyl}-1,2,4-triazin-3(2H)-one]
600 | COc1ccc2c(c1)CCN(c1cnn(Cc3ccc(C(F)(F)F)s3)c(=O)n1)C2C (centres unmarked) [Synthesis Example 42, 5-[6-Methoxy-1-methyl-3,4-dihydroisoquinolin-2(1H)-yl]-2-{[5-(trifluoromethyl)thiophen-2-yl]methyl}-1,2,4-triazin-3(2H)-one]
39 | O=c1nc(N2CCc3c([nH]c4cc(F)ccc34)C2)cnn1Cc1cnc(C(F)(F)F)s1 [Synthesis Example 14, 5-(7-Fluoro-3,4-dihydro-1H-pyrido[3,4-b]indol-2(9H)-yl)-2-{[2-(trifluoromethyl)thiazol-5-yl]methyl}-1,2,4-triazin-3(2H)-one]
17 | O=c1nc(N2CCc3c([nH]c4cc(F)ccc34)C2)cnn1Cc1ccc(C(F)(F)F)s1 [Synthesis Example 9, 5-(7-Fluoro-3,4-dihydro-1H-pyrido[3,4-b]indol-2(9H)-yl)-2-{[5-(trifluoromethyl)thiophen-2-yl]methyl}-1,2,4-triazin-3(2H)-one]
72 | Cc1cc(F)ccc1C1=CCN(c2cnn(Cc3ccc(C(F)(F)F)s3)c(=O)n2)C[C@@H]1O [Synthesis Example 30, (R)-5-[4-(4-Fluoro-2-methylphenyl)-5-hydroxy-5,6-dihydropyridin-1(2H)-yl]-2-{[5-(trifluoromethyl)thiophen-2-yl]methyl}-1,2,4-triazin-3(2H)-one]
1300 | Cn1ccc(C2=CCN(c3cnn(Cc4ccc(C(F)(F)F)s4)c(=O)n3)CC2)n1 [Synthesis Example 39, 5-[4-(1-Methyl-1H-pyrazol-3-yl)-5,6-dihydropyridin-1(2H)-yl]-2-{[5-(trifluoromethyl)thiophen-2-yl]methyl}-1,2,4-triazin-3(2H)-one]
4.8 | Cc1ccc(C2=CCN(c3cnn(Cc4ccc(C(F)(F)F)s4)c(=O)n3)C[C@@H]2O)o1 [Synthesis Example 37, (R)-5-[5-Hydroxy-4-(5-methylfuran-2-yl)-5,6-dihydropyridin-(2H)-yl]-2-{[5-(trifluoromethyl)thiophen-2-yl]methyl}-1,2,4-triazin-3(2H)-one]
130 | Cc1ccc(C2=CCN(c3cnn(Cc4cnc(C(F)(F)F)s4)c(=O)n3)C[C@@H]2O)cc1F [Synthesis Example 45, (R)-5-[4-(3-Fluoro-4-methylphenyl)-5-hydroxy-5,6-dihydropyridin-1(2H)-yl]-2-{[2-(trifluoromethyl)thiazol-5-yl]methyl}-1,2,4-triazin-3(2H)-one]
200 | Cc1csc(C2=CCN(c3cnn(Cc4cnc(C(F)(F)F)s4)c(=O)n3)C[C@@H]2O)c1 [Synthesis Example 17]
